Assay results taken from ChEMBL document CHEMBL1130255, “Intensely cytotoxic anthracycline prodrugs: glucuronides” (J Med Chem, 1997).

Tests used:
glucuronidase = test: Half-life in the presence of Escherichia coli -glucuronidase; format: ADME; conditions: Escherichia coli glucuronidase enzyme
[1] = Half-life when incubated at 37 C in 0.05 M phosphate buffer, pH 7.4, the concentration of 12 uM,; format: ADME

half-life (glucuronidase): 1.7 h | half-life at 12 µM [1]: 30 h
SMILES: CCOC(CCCN)O[C@@H]1O[C@H](C(=O)[O-])[C@@H](O)[C@H](O)[C@H]1O.[Na+] (some centres not stated)
